System: Bacterial Phage Lambda DNA
Assay: In vitro nucleic acid binding fluorescence assay, Lambda DNA
Settings: equivalent fluorochrome concentrations, FIG. 1F
Protocol: Bacterial Phage Lambda DNA (Sigma-Aldrich), CpG DNA (Enzo Life, Plymouth Meeting, Pa.), Torula yeast RNA (Sigma-Aldrich) were completely dissolved in Tris-acetate-EDTA (TAE) buffer (pH=8) by gentle inversion overnight at 4° C. Lambda DNA, CpG DNA, yeast RNA stock solutions were characterized by spectrophotometry to determine the concentration and purity. Total mouse heart RNA was extracted from C57Bl6 mouse hearts using TRI Reagent (Sigma-Aldrich) and characterized with a NanoDrop spectrophotometer (Thermo Fisher) as described in Feng Y, Chen H, et al., J Biol Chem. 2015; 290: 26688-98. […] Fluorescence was measured with the GloMax-Multi Detection System and snap-in fluorescent optical kits (Promega, Madison, Wis.). EC50 was determined using the dose-response curve fitting function implemented in Prism (GraphPad, La Jolla, Calif.).

Fluorescence increase with DNA concentration | Compound
substantially less increase | CN1/C(=C/c2cc[n+](CCC[N+](C)(C)C)c3ccccc23)Sc2ccccc21 [TO-PRO 1]
No fluorescence increase and none | Cy5.5

From patent US11779661B2, “Theranostic nucleic acid binding fluorescent nanoprobes and uses thereof” (The General Hospital Corporation, priority 2016, dated 2023)
